From PubChem BioAssay AID1745844 (Carcinogenic Potency Database (CPDB), 2022)
Several values for one entry are separate records, joined by “and”; a condition that tells them apart may be missing. Equal entries are not always repeated. Activity calls are given as the source filed them. How the calls were made is not given here.

Test system: rodent lifetime carcinogenesis bioassay, tumor incidence TD50
Test: carcinogenic potency in animals, long-term in vivo studies, CPDB compilation (AID 1745844)

ClC=C(Cl)Cl
carcinogen call (hamster, strain Syrian Golden, females, inhaled, site: any site (literature study), lesion: benign tumor, dosed 78 weeks, study length 130 weeks): negative (inactive)
TD50 (hamster, strain Syrian Golden, females, inhaled, site: any site (literature study), lesion: malignant tumor, dosed 78 weeks, study length 130 weeks): 9220 mg/kg/day (inactive)
carcinogen call (hamster, strain Syrian Golden, females, inhaled, site: liver, lesion: several types, types named in the paper, dosed 78 weeks, study length 130 weeks): negative (inactive)
TD50 (hamster, strain Syrian Golden, males, inhaled, site: any site (literature study), lesion: benign tumor, dosed 78 weeks, study length 130 weeks): 5640 mg/kg/day (inactive)
carcinogen call (hamster, strain Syrian Golden, males, inhaled, site: any site (literature study), lesion: malignant tumor, dosed 78 weeks, study length 130 weeks): negative (inactive)
carcinogen call (hamster, strain Syrian Golden, males, inhaled, site: liver, lesion: several types, types named in the paper, dosed 78 weeks, study length 130 weeks): negative (inactive)
TD50 (mouse, strain B6C3F1, females, by gavage, site: any site (literature study), lesion: several types, types named in the paper, dosed 78 weeks, study length 90 weeks): 1850 mg/kg/day
TD50 (mouse, strain B6C3F1, females, by gavage, site: any site (literature study), lesion: several types, types named in the paper, dosed 103 weeks, study length 105 weeks): 359 mg/kg/day
TD50 (mouse, strain B6C3F1, females, by gavage, site: liver + multiple organs + spleen, lesion: malignant lymphoma, histiocytic type + malignant lymphoma, mixed type + malignant lymphoma, lymphocytic type + malignant lymph, dosed 103 weeks, study length 105 weeks): 1350 mg/kg/day and 1470 mg/kg/day
TD50 (mouse, strain B6C3F1, females, by gavage, site: liver, lesion: hepatocellular adenoma + hepatocellular carcinoma + neoplastic nodule, dosed 78 weeks, study length 90 weeks): 1930 mg/kg/day
TD50 (mouse, strain B6C3F1, females, by gavage, site: liver, lesion: hepatocellular adenoma + hepatocellular carcinoma + neoplastic nodule, dosed 103 weeks, study length 105 weeks): 411 mg/kg/day
TD50 (mouse, strain B6C3F1, females, by gavage, site: liver, lesion: hepatocellular adenoma + hepatocellular carcinoma, dosed 103 weeks, study length 105 weeks): 411 mg/kg/day
TD50 (mouse, strain B6C3F1, females, by gavage, site: liver, lesion: hepatocellular adenoma, dosed 103 weeks, study length 105 weeks): 579 mg/kg/day
TD50 (mouse, strain B6C3F1, females, by gavage, site: liver, lesion: hepatocellular carcinoma, dosed 78 weeks, study length 90 weeks): 1930 mg/kg/day
TD50 (mouse, strain B6C3F1, females, by gavage, site: liver, lesion: hepatocellular carcinoma, dosed 103 weeks, study length 105 weeks): 673 mg/kg/day
TD50 (mouse, strain B6C3F1, females, by gavage, site: lung, lesion: alveolar/bronchiolar adenoma + alveolar/bronchiolar carcinoma, dosed 78 weeks, study length 90 weeks): 4350 mg/kg/day
TD50 (mouse, strain B6C3F1, females, by gavage, site: lung, lesion: alveolar/bronchiolar adenoma + alveolar/bronchiolar carcinoma, dosed 103 weeks, study length 105 weeks): 3850 mg/kg/day
TD50 (mouse, strain B6C3F1, females, by gavage, site: lung, lesion: alveolar/bronchiolar adenoma, dosed 103 weeks, study length 105 weeks): 2780 mg/kg/day
TD50 (mouse, strain B6C3F1, females, by gavage, site: multiple organs, lesion: malignant lymphoma, lymphocytic type, dosed 103 weeks, study length 105 weeks): 4880 mg/kg/day
TD50 (mouse, strain B6C3F1, females, inhaled, site: any site (literature study), lesion: malignant tumor, dosed 78 weeks, study length 154 weeks): 2080 mg/kg/day
TD50 (mouse, strain B6C3F1, females, inhaled, site: any site (literature study), lesion: several types, types named in the paper, dosed 78 weeks, study length 154 weeks): 1320 mg/kg/day
TD50 (mouse, strain B6C3F1, females, inhaled, site: liver, lesion: hepatoma, dosed 78 weeks, study length 154 weeks): 13600 mg/kg/day
TD50 (mouse, strain B6C3F1, females, inhaled, site: lung, lesion: one or several types, types not named, dosed 78 weeks, study length 154 weeks): 6320 mg/kg/day
TD50 (mouse, strain B6C3F1, females, inhaled, site: thyroid gland, lesion: adenoma, dosed 78 weeks, study length 154 weeks): 2.23e+06 mg/kg/day
TD50 (mouse, strain B6C3F1, females, inhaled, site: thyroid gland, lesion: carcinoma, dosed 78 weeks, study length 154 weeks): 131000 mg/kg/day
TD50 (mouse, strain B6C3F1, males, by gavage, site: Harderian gland, lesion: adenoma, NOS + acinar-cell adenoma + papillary adenoma, dosed 103 weeks, study length 105 weeks): 3830 mg/kg/day
TD50 (mouse, strain B6C3F1, males, by gavage, site: any site (literature study), lesion: several types, types named in the paper, dosed 78 weeks, study length 90 weeks): 553 mg/kg/day
TD50 (mouse, strain B6C3F1, males, by gavage, site: any site (literature study), lesion: several types, types named in the paper, dosed 103 weeks, study length 105 weeks): 332 mg/kg/day
TD50 (mouse, strain B6C3F1, males, by gavage, site: liver, lesion: hepatocellular adenoma + hepatocellular carcinoma + neoplastic nodule, dosed 78 weeks, study length 90 weeks): 421 mg/kg/day
TD50 (mouse, strain B6C3F1, males, by gavage, site: liver, lesion: hepatocellular adenoma + hepatocellular carcinoma + neoplastic nodule, dosed 103 weeks, study length 105 weeks): 239 mg/kg/day
TD50 (mouse, strain B6C3F1, males, by gavage, site: liver, lesion: hepatocellular adenoma + hepatocellular carcinoma, dosed 103 weeks, study length 105 weeks): 239 mg/kg/day
TD50 (mouse, strain B6C3F1, males, by gavage, site: liver, lesion: hepatocellular adenoma, dosed 103 weeks, study length 105 weeks): 855 mg/kg/day
TD50 (mouse, strain B6C3F1, males, by gavage, site: liver, lesion: hepatocellular carcinoma, dosed 78 weeks, study length 90 weeks): 421 mg/kg/day
TD50 (mouse, strain B6C3F1, males, by gavage, site: liver, lesion: hepatocellular carcinoma, dosed 103 weeks, study length 105 weeks): 294 mg/kg/day
TD50 (mouse, strain B6C3F1, males, by gavage, site: lung, lesion: alveolar/bronchiolar adenoma + alveolar/bronchiolar carcinoma, dosed 78 weeks, study length 90 weeks): 7160 mg/kg/day
TD50 (mouse, strain B6C3F1, males, by gavage, site: lung, lesion: alveolar/bronchiolar adenoma + alveolar/bronchiolar carcinoma, dosed 103 weeks, study length 105 weeks): 4250 mg/kg/day
TD50 (mouse, strain B6C3F1, males, in drinking water, site: liver, lesion: hepatocellular adenoma, dosed 61 weeks, study length 61 weeks): 502 mg/kg/day
TD50 (mouse, strain B6C3F1, males, in drinking water, site: liver, lesion: hepatocellular carcinoma, dosed 61 weeks, study length 61 weeks): 16 mg/kg/day
TD50 (mouse, strain B6C3F1, males, inhaled, site: liver, lesion: angiosarcoma, dosed 78 weeks, study length 135 weeks): 77000 mg/kg/day
TD50 (mouse, strain B6C3F1, males, inhaled, site: liver, lesion: hepatoma, dosed 78 weeks, study length 135 weeks): 4530 mg/kg/day
TD50 (mouse, strain B6C3F1, males, inhaled, site: liver, lesion: hepatoma, dosed 78 weeks, study length 154 weeks): 5030 mg/kg/day
TD50 (mouse, strain Ha/ICR, females, by gavage, site: forestomach, lesion: one or several types, types not named, dosed 88 weeks, study length 88 weeks): 41.3 mg/kg/day (inactive)
TD50 (mouse, strain Ha/ICR, males, by gavage, site: forestomach, lesion: one or several types, types not named, dosed 88 weeks, study length 88 weeks): 16.9 mg/kg/day (inactive)
TD50 (mouse, strain Han:NMRI, females, inhaled, site: all sites, lesion: malignant lymphoma, dosed 78 weeks, study length 130 weeks): 846 mg/kg/day
carcinogen call (mouse, strain Han:NMRI, females, inhaled, site: any site (literature study), lesion: benign tumor, dosed 78 weeks, study length 130 weeks): negative (inactive)
TD50 (mouse, strain Han:NMRI, females, inhaled, site: any site (literature study), lesion: malignant tumor, dosed 78 weeks, study length 130 weeks): 573 mg/kg/day (inactive)
carcinogen call (mouse, strain Han:NMRI, females, inhaled, site: liver, lesion: several types, types named in the paper, dosed 78 weeks, study length 130 weeks): negative (inactive)
carcinogen call (mouse, strain Han:NMRI, females, inhaled, site: lung, lesion: alveolar/bronchiolar adenoma, dosed 78 weeks, study length 130 weeks): negative (inactive)
carcinogen call (mouse, strain Han:NMRI, females, inhaled, site: lung, lesion: alveolar/bronchiolar carcinoma, dosed 78 weeks, study length 130 weeks): negative (inactive)
carcinogen call (mouse, strain Han:NMRI, males, inhaled, site: all sites, lesion: malignant lymphoma, dosed 78 weeks, study length 130 weeks): negative (inactive)
carcinogen call (mouse, strain Han:NMRI, males, inhaled, site: any site (literature study), lesion: benign tumor, dosed 78 weeks, study length 130 weeks): negative (inactive)
carcinogen call (mouse, strain Han:NMRI, males, inhaled, site: any site (literature study), lesion: malignant tumor, dosed 78 weeks, study length 130 weeks): negative (inactive)
carcinogen call (mouse, strain Han:NMRI, males, inhaled, site: liver, lesion: hepatocellular adenoma, dosed 78 weeks, study length 130 weeks): negative (inactive)
carcinogen call (mouse, strain Han:NMRI, males, inhaled, site: liver, lesion: hepatocellular carcinoma, dosed 78 weeks, study length 130 weeks): negative (inactive)
carcinogen call (mouse, strain Han:NMRI, males, inhaled, site: liver, lesion: hepatoma, benign, dosed 78 weeks, study length 130 weeks): negative (inactive)
carcinogen call (mouse, strain Han:NMRI, males, inhaled, site: lung, lesion: alveolar/bronchiolar adenoma, dosed 78 weeks, study length 130 weeks): negative (inactive)
carcinogen call (mouse, strain Han:NMRI, males, inhaled, site: lung, lesion: malignant tumor, dosed 78 weeks, study length 130 weeks): negative (inactive)
TD50 (mouse, strain ICR, females, inhaled, site: any site (literature study), lesion: several types, types named in the paper, dosed 104 weeks, study length 107 weeks): 1900 mg/kg/day
TD50 (mouse, strain ICR, females, inhaled, site: liver, lesion: adenoma, dosed 104 weeks, study length 107 weeks): 42300 mg/kg/day
TD50 (mouse, strain ICR, females, inhaled, site: lung, lesion: adenocarcinoma, dosed 104 weeks, study length 107 weeks): 3380 mg/kg/day
TD50 (mouse, strain ICR, females, inhaled, site: lung, lesion: several types, types named in the paper, dosed 104 weeks, study length 107 weeks): 3370 mg/kg/day
TD50 (mouse, strain Swiss, females, inhaled, site: any site (literature study), lesion: malignant tumor, dosed 78 weeks, study length 145 weeks): 9840 mg/kg/day
TD50 (mouse, strain Swiss, females, inhaled, site: any site (literature study), lesion: several types, types named in the paper, dosed 78 weeks, study length 145 weeks): 9190 mg/kg/day
TD50 (mouse, strain Swiss, females, inhaled, site: liver, lesion: hepatoma, dosed 78 weeks, study length 145 weeks): 121000 mg/kg/day
TD50 (mouse, strain Swiss, females, inhaled, site: lung, lesion: one or several types, types not named, dosed 78 weeks, study length 145 weeks): 35400 mg/kg/day
TD50 (mouse, strain Swiss, males, inhaled, site: any site (literature study), lesion: malignant tumor, dosed 78 weeks, study length 145 weeks): 6320 mg/kg/day
